Assay results from US10376557B2, “Peptide fragments for inducing synthesis of extracellular matrix proteins” (HELIX BIOMEDIX, INC., priority 2006, dated 2019).
Ends that are not written are not given here.

Columns and labels:
Format in all cases: cell-based
Human dermal fibroblasts = assay: SIRCOL collagen assay: soluble collagen released by dermal fibroblasts incubated with peptides; settings: for Released collagen (μg/mL) 24 h / Released collagen (μg/mL) 48 h: peptide 50 μg/mL (per Table 5); for Collagen / Collagen (μg): * = may not be significant, detection limit 2.5 μg; for Collagen produced (μg/mL) 24 hrs / Collagen produced (μg/mL) 48 hrs: [Peptide] 50 μg/mL
Description: Several sequences identified in Examples 1 and 2 were synthesized using standard peptide chemistry and assayed for the stimulation of collagen from dermal fibroblasts. The synthesized peptides were amidated at the C-terminus, which rendered the tetrapeptides less susceptible to protease degradation and increased their solubility compared to the free acid forms. Human dermal fibroblasts were incubated in 96-well plates at 37° C. and 5% CO2 for 24 and 48 hours in 150 μL complete cell culture media (Cascade Biologics, Portland, Oreg.; Cat. No. M-106-500), supplemented with Low Serum Growth Supplement (Cascade Biologics, Portland, Oreg.; Cat. No. […] Each well was seeded with 10,000 cells. Following the incubation, 100-μL medium samples were recovered from each well and assayed for collagen production
The assays were performed by Tebu-bio Laboratories (France) using the SIRCOL™ Collagen Assay Kit (Biocolor Assays, UK) following the manufacturer's protocol. The SIRCOL™ Collagen Assay is a quantitative dye-binding method designed for the analysis of soluble collagens released into culture medium by mammalian cells during in vitro culture. The collagen of the tested samples binds to the anionic SIRCOL™ dye. The collagen-dye complexes precipitate out of solution and are pelleted by centrifugation. The recovered collagen-dye pellet was dissolved in an alkaline solution prior to absorbance measurements. Duplicate measurements were taken at the 24 and 48 hour times from two separate samples. The four measurements for each sample were averaged. The absorbance of reagent blanks, collagen standards, and samples were measured at 560 nm. The reagent blank absorbance was subtracted from the absorbance from each sample at 24 and 48 hours.
Two separate data sets were used to generate two collagen standard calibration curves. The first calibration curve was generated for purposes of calculating the quantity of collagen in samples H6 (combination of SEQ ID NOs:1-4), […] (SEQ ID NOs:1-8, respectively) and H15 (combination of SEQ ID NOs:5-8). The second calibration curve was generated for calculating the quantity of collagen in samples H16 (SEQ ID NO:9), H21-23 (SEQ ID NOs:10-12, respectively), H25-26 (SEQ ID NOs:13-14, respectively), or H29-30 (SEQ ID NOs:15-16, respectively), H32 (SEQ ID NO:17), H33 (combination of SEQ ID NOs:9-12), H34 (combination of SEQ ID NOs:11-14), H35 (combination of SEQ ID NOs:13-16), H36 (combination of SEQ ID NOs:1, 6, 5, 8), H37 (SEQ ID NO: 17) and H38 (SEQ ID NO:8) from the absorbance measurements was created by plotting the Abs560nm of the known collagen standards versus the respective concentrations of the collagen standards (in micrograms) each time a series of assays were performed. With respect to each data set, the same calibration curve was used for samples taken at the 24 and 48 hour times (Tables 2A and 2B). Accordingly, different standard curves were prepared immediately prior to performing each series of assays.
A linear regression was performed from plotting the Abs560nm values versus concentrations of the respective collagen standards using MICROSOFT EXCEL™. […] As the results were identical, only the 24-hour time period was used for the second series calibration curves. The formula of the line obtained on assay date 1 and assay date 2 of the second series of samples was y=0.0178x and y=0.0162x, respectively. The peptide LL-37 (SEQ ID NO:18) was used as a positive control as it has been widely reported to have an impact upon wound healing in man (Heilborn et al., The Cathelicidin Anti-Microbial Peptide LL-37 Is Involved In The Re-Epithelialization Of Human Skin Wounds And Is Lacking In Chronic Ulcer Epithelium, J. Invest. Dermato. 120:379-89 (2003). The assay detection limit defined by the manufacturer is 2.5 μg. […]

[1] = test system: human skin epithelial cells (CRL-2592); assay: In vitro scratch wound closure of skin epithelial cell monolayer; settings: for W-size (wound size) 0 hr: prior to peptide treatment; for W-size (wound size) 6 hr / % closure 6 hr / W-size (wound size) 10 hr / % closure 10 hr: peptide 20 to 40 μg/ml; for % closure 6 hr: PBS controls 19.40%, 19.20%; for % closure 10 hr: PBS controls 41.70%, 42.30%; for wound closure compared to PBS alone (in words): epithelial cell monolayer
Description: Wound healing experiments were performed on monolayers of human skin epithelial cells (CRL-2592) plated onto 12-well plates. Cells were serum-starved for 24 hours before experimentation. Confluent monolayers of CRL-2592 were wounded using a P200 (200-μL) pipette tip. The wounds were washed and picture-documented prior to peptide treatment. Peptides were added to a final concentration from 20 to 40 μg/ml. Cells were kept in an incubator at 37° C., 5% CO2, and 92% humidity, except when images were being captured for a short period at room temperature. Wound closure was followed at 6-hour and 10-hour time points. PBS-treated wounds were used as negative controls for comparison purposes.

[2] = test system: human skin fibroblast monolayer; assay: Wound closure in skin fibroblast monolayer (data not shown)
Text: In vitro monolayer wound closure is a result of cell migration, which is important in many biological processes such as embryogenesis, angiogenesis, inflammatory reactions and wound repair. These processes are thought to be regulated by interactions with other cells, cytokines and ECM proteins.

[3] = 24 hours, peptide 50 μg/mL, 100 μL medium sample
[4] = 48 hours, peptide 50 μg/mL, 100 μL medium sample
[5] = check mark = yes, peptide 50 μg/mL
[6] = 24 hours, peptide 50 μg/mL, second series
[7] = 48 hours, peptide 50 μg/mL, second series

Substance | Released collagen (μg/mL) 24 h (Human dermal fibroblasts) | Average (A560 nm) (Human dermal fibroblasts; 24 hours, peptide 50 μg/mL) | Average minus blank (A560 nm) (Human dermal fibroblasts; 24 hours, peptide 50 μg/mL) | Collagen produced (μg/mL) 24 hrs (Human dermal fibroblasts) | Released collagen (μg/mL) 48 h (Human dermal fibroblasts) | Average (A560 nm) (Human dermal fibroblasts; 48 hours, peptide 50 μg/mL) | Average minus blank (A560 nm) (Human dermal fibroblasts; 48 hours, peptide 50 μg/mL) | Collagen (μg) (Human dermal fibroblasts; [4]) | Collagen produced (μg/mL) 48 hrs (Human dermal fibroblasts) | Decrease in collagen release at 48 h v. 24 h (Human dermal fibroblasts; [5]) | Average (A560 nm) (Human dermal fibroblasts; [6]) | Average minus blank (A560 nm) (Human dermal fibroblasts; [6]) | Collagen (μg) (Human dermal fibroblasts; [6]) | Average (A560 nm) (Human dermal fibroblasts; [7]) | Average minus blank (A560 nm) (Human dermal fibroblasts; [7]) | Collagen (μg) (Human dermal fibroblasts; [7]) | Increase in collagen release at 48 h v. 24 h (Human dermal fibroblasts; [5]) | also measured
GSPG (Synthetic Peptide H9) | 35 µg/mL | 0.13 | 0.05 | 35 µg/mL | 0 µg/mL | 0.09 | 0.00 | 0.0* μg | 0 µg/mL | ✓ | – | – | – | – | – | – | – | Collagen (Human dermal fibroblasts; [3]): 3.5 µg
GPPG (Synthetic Peptide H13) | 18 µg/mL | 0.10 | 0.02 | 18 µg/mL | 2 µg/mL | 0.12 | 0.00 | 0.2* μg | 2 µg/mL | – | – | – | – | – | – | – | – | Collagen (μg) (Human dermal fibroblasts; [3]): 1.8* μg
PQGP (PQGP-NH2) [H29] | 4 µg/mL | – | – | 4 µg/mL | 19 µg/mL | – | – | – | 19 µg/mL | – | 0.09 | 0.01 | 0.4* μg | 0.09 | 0.03 | 1.9* μg | ✓ | –
GFPG (Synthetic Peptide H8) | 15 µg/mL | 0.10 | 0.02 | 15 µg/mL | 9 µg/mL | 0.13 | 0.01 | 0.9* μg | 9 µg/mL | – | – | – | – | – | – | – | – | Collagen (μg) (Human dermal fibroblasts; [3]): 1.5* μg
PGPP (Synthetic Peptide H26) | 29 µg/mL | – | – | 29 µg/mL | 35 µg/mL | – | – | – | 35 µg/mL | – | 0.13 | 0.05 | – | 0.12 | 0.06 | – | – | Collagen (Human dermal fibroblasts; [6]): 2.9 µg; Collagen (Human dermal fibroblasts; [7]): 3.5 µg; Significant release of collagen at 24 h and 48 h (Human dermal fibroblasts; check mark = yes, 25 μg/mL considered significant, peptide 50 μg/mL): ✓; W-size (wound size) 0 hr [1]: 25 arbitrary; W-size (wound size) 6 hr [1]: 12 arbitrary; % closure 6 hr [1]: 52%; W-size (wound size) 10 hr [1]: 2.75 arbitrary; % closure 10 hr [1]: 89%; wound closure compared to PBS alone (in words) [1]: significantly induces wound closure; wound closure in fibroblast monolayer (in words) [2]: does not induce wound closure
PGTP (PGTP-NH2) [H23] | 1 µg/mL | – | – | 1 µg/mL | 17 µg/mL | – | – | – | 17 µg/mL | – | 0.08 | 0.00 | 0.1* μg | 0.09 | 0.03 | 1.7* μg | ✓ | –
PEKP (PEKP-NH2) [H16] | 31 µg/mL | – | – | 31 µg/mL | 3 µg/mL | – | – | – | 3 µg/mL | ✓ | 0.14 | 0.06 | – | 0.06 | 0.00 | 0.3* μg | – | Collagen (Human dermal fibroblasts; [6]): 3.1 µg
GEPG (Synthetic Peptide H11) | 45 µg/mL | 0.14 | 0.06 | 45 µg/mL | 21 µg/mL | 0.15 | 0.03 | 2.1* μg | 21 µg/mL | ✓ | – | – | – | – | – | – | – | Collagen (Human dermal fibroblasts; [3]): 4.5 µg; W-size (wound size) 0 hr [1]: 48 arbitrary; W-size (wound size) 6 hr [1]: 39 arbitrary; % closure 6 hr [1]: 19%; W-size (wound size) 10 hr [1]: 30 arbitrary; % closure 10 hr [1]: 37.50%; wound closure compared to PBS alone (in words) [1]: does not enhance wound closure or epithelial cell migration to any great extent
PGNP (PGNP-NH2) [H30] | 9 µg/mL | – | – | 9 µg/mL | 20 µg/mL | – | – | – | 20 µg/mL | – | 0.10 | 0.02 | 0.9* μg | 0.09 | 0.03 | 2.0* μg | ✓ | –
